These are literature values, as cited in PubChem BioAssay AID1259409 (Chemical Carcinogenesis Research Information System (CCRIS), 2018).

The subject of this data set is rodent chemically induced tumor inhibition, incidence and multiplicity. The experiment in a line: CCRIS tumor inhibitor studies. As to conditions: Route [Inhibitor]: ORAL, Promoter: NONE USED.

For the molecule `COc1ccc([C@@H]2CC(=O)c3c(O)cc(O[C@@H]4O[C@H](CO[C@@H]5O[C@@H](C)[C@H](O)[C@@H](O)[C@H]5O)[C@@H](O)[C@H](O)[C@H]4O)cc3O2)cc1O`, the “tumour outcome (control, treated, inhibition, significance)” value was 5/17 (29%), 0/20 (0%), 100%, p<0.05 (Carcinogen: AZOXYMETHANE, 25843-45-2, Dose [Inhibitor]: 0, 1000 PPM IN DIET FOR 28 WK BEGINNING 1 WK POST CARCINOGEN TREATMENT (STUDY DURATION: 32 WK), Species: RAT, Strain/Sex: F344/MALE, Target Tissue: Type of Lesion: SMALL INTESTINE: TUMOR, Dose [Carcinogen]: 15 MG/KG BW 1/WK FOR 3 WK); 5/26 (19%), 1/23 (4%), 79%, not significant (Carcinogen: N-BUTYL-N-(4-HYDROXYBUTYL)NITROSAMINE, 3817-11-6, Dose [Inhibitor]: 0, 1000 PPM IN DIET FOR 8 WK BEGINNING 1 WK PRIOR TO CARCINOGEN TREATMENT (STUDY DURATION: 32 WK), Species: MOUSE, Strain/Sex: ICR/MALE, Target Tissue: Type of Lesion: URINARY BLADDER: PAPILLOMA, Dose [Carcinogen]: 500 PPM IN DRINKING WATER FOR 6 WK); 5/26 (19%), 3/25 (12%), 37%, not significant (Carcinogen: N-BUTYL-N-(4-HYDROXYBUTYL)NITROSAMINE, 3817-11-6, Dose [Inhibitor]: 0, 1000 PPM IN DIET FOR 24 WK BEGINNING 1 WK POST CARCINOGEN TREATMENT (STUDY DURATION: 32 WK), Species: MOUSE, Strain/Sex: ICR/MALE, Target Tissue: Type of Lesion: URINARY BLADDER: PAPILLOMA, Dose [Carcinogen]: 500 PPM IN DRINKING WATER FOR 6 WK); 16/26 (62%), 5/25 (20%), 68%, p<0.005 (Carcinogen: N-BUTYL-N-(4-HYDROXYBUTYL)NITROSAMINE, 3817-11-6, Dose [Inhibitor]: 0, 1000 PPM IN DIET FOR 24 WK BEGINNING 1 WK POST CARCINOGEN TREATMENT (STUDY DURATION: 32 WK), Species: MOUSE, Strain/Sex: ICR/MALE, Target Tissue: Type of Lesion: URINARY BLADDER: TRANSITIONAL CELL CARCINOMA, Dose [Carcinogen]: 500 PPM IN DRINKING WATER FOR 6 WK); 16/26 (62%), 3/23 (13%), 79%, p<0.001 (Carcinogen: N-BUTYL-N-(4-HYDROXYBUTYL)NITROSAMINE, 3817-11-6, Dose [Inhibitor]: O, 1000 PPM IN DIET FOR 8 WK BEGINNING 1 WK PRIOR TO CARCINOGEN TREATMENT (STUDY DURATION: 32 WK), Species: MOUSE, Strain/Sex: ICR/MALE, Target Tissue: Type of Lesion: URINARY BLADDER: TRANSITIONAL CELL CARCINOMA, Dose [Carcinogen]: 500 PPM IN DRINKING WATER FOR 6 WK); 75%, 56%, 25%, not significant (Carcinogen: N-METHYL-N-AMYLNITROSAMINE, 13256-07-0, Dose [Inhibitor]: 0, 1000 PPM IN DIET FOR 7 WK BEGINNING 1 WK POST CARCINOGEN TREATMENT (STUDY DURATION: 20 WK), Species: RAT, Strain/Sex: WISTAR/MALE, Target Tissue: Type of Lesion: ESOPHAGUS: SQUAMOUS CELL CARCINOMA, Dose [Carcinogen]: 12.5 MG/KG BW 1/WK FOR 12 WK). The “tumour outcome (control, treated, inhibition, significance)” value reads like this: (Carcinogen: N-METHYL-N-AMYLNITROSAMINE, 13256-07-0, Dose [Inhibitor]: 0, 1000 PPM IN DIET FOR 7 WK BEGINNING 1 WK POST CARCINOGEN TREATMENT (STUDY DURATION: 20 WK), Species: RAT, Strain/Sex: WISTAR/MALE, Target Tissue: Type of Lesion: ESOPHAGUS: SQUAMOUS CELL PAPILLOMA, Dose [Carcinogen]: 12.5 MG/KG BW 1/WK FOR 12 WK) 100%, 100%, 0%, not significant; (Carcinogen: N-METHYL-N-AMYLNITROSAMINE, 13256-07-0, Dose [Inhibitor]: 0, 1000 PPM IN DIET FOR 7 WK BEGINNING 1 WK POST CARCINOGEN TREATMENT (STUDY DURATION: 20 WK), Species: RAT, Strain/Sex: WISTAR/MALE, Target Tissue: Type of Lesion: TONGUE: SQUAMOUS CELL CARCINOMA, Dose [Carcinogen]: 12.5 MG/KG BW 1/WK FOR 12 WK) 17%, 16%, 6%, not significant; (Carcinogen: N-METHYL-N-AMYLNITROSAMINE, 13256-07-0, Dose [Inhibitor]: 0, 1000 PPM IN DIET FOR 7 WK BEGINNING 1 WK POST CARCINOGEN TREATMENT (STUDY DURATION: 20 WK), Species: RAT, Strain/Sex: WISTAR/MALE, Target Tissue: Type of Lesion: TONGUE: SQUAMOUS CELL PAPILLOMA, Dose [Carcinogen]: 12.5 MG/KG BW 1/WK FOR 12 WK) 33%, 16%, 52%, not calculated; (Carcinogen: N-METHYL-N-AMYLNITROSAMINE, 13256-07-0, Dose [Inhibitor]: 0, 1000 PPM IN DIET FOR 13 WK BEGINNING 1 WK PRIOR TO CARCINOGEN TREATMENT (STUDY DURATION: 20 WK), Species: RAT, Strain/Sex: WISTAR/MALE, Target Tissue: Type of Lesion: ESOPHAGUS: SQUAMOUS CELL CARCINOMA, Dose [Carcinogen]: 12.5 MG/KG BW 1/WK FOR 12 WK) 75%, 45%, 40%, not significant; (Carcinogen: N-METHYL-N-AMYLNITROSAMINE, 13256-07-0, Dose [Inhibitor]: 0, 1000 PPM IN DIET FOR 13 WK BEGINNING 1 WK PRIOR TO CARCINOGEN TREATMENT (STUDY DURATION: 20 WK), Species: RAT, Strain/Sex: WISTAR/MALE, Target Tissue: Type of Lesion: ESOPHAGUS: SQUAMOUS CELL PAPILLOMA, Dose [Carcinogen]: 12.5 MG/KG BW 1/WK FOR 12 WK) 100%, 100%, 0%, not significant; (Carcinogen: N-METHYL-N-AMYLNITROSAMINE, 13256-07-0, Dose [Inhibitor]: 0, 1000 PPM IN DIET FOR 13 WK BEGINNING 1 WK PRIOR TO CARCINOGEN TREATMENT (STUDY DURATION: 20 WK), Species: RAT, Strain/Sex: WISTAR/MALE, Target Tissue: Type of Lesion: TONGUE: SQUAMOUS CELL CARCINOMA, Dose [Carcinogen]: 12.5 MG/KG BW 1/WK FOR 12 WK) 17%, 0%, 100%, not calculated. In addition, for the setting “Carcinogen: N-METHYL-N-AMYLNITROSAMINE, 13256-07-0, Dose [Inhibitor]: 0, 1000 PPM IN DIET FOR 13 WK BEGINNING 1 WK PRIOR TO CARCINOGEN TREATMENT (STUDY DURATION: 20 WK), Species: RAT, Strain/Sex: WISTAR/MALE, Target Tissue: Type of Lesion: TONGUE: SQUAMOUS CELL PAPILLOMA, Dose [Carcinogen]: 12.5 MG/KG BW 1/WK FOR 12 WK”, the “tumour outcome (control, treated, inhibition, significance)” value is given as 33%, 10%, 70%, not significant.
